Assay results taken from patent US8906906B2, “Viral replication inhibitors” (Katholieke Universiteit Leuven, priority 2009, dated 2014).

Legend:
[1] = Cytotoxicity in mock-infected MT-4 cells (MTT); format: cell-based; conditions: human, read-out: CC50 in MT4-IIIB (μm)
Procedure: A rapid and automated assay procedure was used for the in vitro evaluation of anti-HIV agents. An HTLV-1 transformed T4-cell line MT-4, which was previously shown to be highly susceptible to and permissive for HIV infection, served as the target cell line. Inhibition of the HIV-induced cytopathogenic effect was used as the end point. The viability of both HIV-and mock-infected cells was assessed spectrophotometrically via in situ reduction of 3-(4,5-dimethylthiazol-2-yl)-2,5-diphenyltetrazolium bromide (MTT). The 50% cytotoxic concentration (CC50 in μg/ml) was defined as the concentration of compound that reduced the absorbance of the mock-infected control sample by 50%. The percent protection achieved by the compound in HIV-infected cells was calculated by the following formula: […]
Examples of inhibition of cell proliferation by particular compounds of formula (I) can be found by looking at the respective CC50 values in the MT-4 cell line.
Cells: MT-4 cells (Miyoshi et al., 1982) were grown and maintained in RPMI 1640 medium supplemented with 10% heat-inactivated fetal calf serum, 2 mM I-glutamine, 0.1% sodium bicarbonate, and 20 æg of gentamicin per ml.

[2] = molecular target: T1, His6-tagged HIV-1 integrase / flag-LEDGF/p75 interaction (Human immunodeficiency virus type 1 group M subtype B, UniProt P04585); assay: AlphaScreen assay of LEDGF-integrase interaction inhibition; format: binding; conditions: compounds tested from 0.1 up to 100 μM
T1 construct: His6-tagged HIV-1 integrase; made in house
Procedure: Alphascreen Assay to Measure the LEDGF-Integrase Interaction Inhibitory Activity of Compounds of the Invention
The AlphaScreen assay was performed according to the manufacturer's protocol (Perkin Elmer, Benelux). Reactions were performed in 25 μl final volume in 384-well Optiwell™ microtiter plates (Perkin Elmer). The reaction buffer contained 25 mM Tris-HCl (pH 7.4), 150 mM NaCl, 1 mM MgCl2, 0.01% (v/v) Tween-20 and 0.1% (w/v) bovine serum albumin. His6-tagged integrase (300 nM final concentration) was incubated with the compounds for 30 min at 4° C. The compounds were added at varying concentrations spanning a wide range from 0.1 up to 100 μM. Afterwards 100 nM flag-LEDGF/p75 was added and incubation was prolonged for an additional hour at 4° C. Subsequently 5 μl of Ni-chelate-coated acceptor beads and 5 μl anti-flag donor beads were added to a final concentration of 20 μg/ml of both beads. Proteins and beads were incubated for 1 h at 30° C. in order to allow association to occur. Exposure of the reaction to direct light was omitted as much as possible and the emission of light from the acceptor beads was measured in the EnVision plate reader (Perkin Elmer, Benelux) and analyzed using the EnVision manager software. IN/DNA binding was analyzed in a similar setting using His6-tagged integrase (1 μM final concentration) and an oligodeoxynucleotide mimicking the IN ELISA oligonucleotide substrate (30 nM final concentration). Counterscreens with JPO2 or PogZ, respectively, were essentially performed as described previously.
Expression and purification of recombinant proteins: His6-tagged HIV-1 integrase, 3×flag-tagged LEDGF/p75, MBP-JPO2 and MBP-PogZ were purified for AlphaScreen applications as described previously 23,25,56.

HIV (MT4-IIIB) = assay: Anti-HIV activity: inhibition of HIV-induced cytopathogenic effect in MT-4 cells (MTT); format: cell-based; conditions: Human immunodeficiency virus 1, IIIB

## CCCC(C(=O)O)c1c(C)nc(-c2ccccc2)nc1-c1ccc2c(c1)CCO2 (stereo not drawn) [cpd 70]
[1]
  CC50: 90 µM
[2]
  IC50: 14.9 µM
HIV (MT4-IIIB)
  EC50: 42.1 µM

## CCCC(C(=O)O)c1c(C)nc(-c2ccccc2)nc1-c1ccc2occc2c1 (stereo not drawn) [cpd 72]
[1]
  CC50: 110 µM
[2]
  IC50: 14.7 µM
HIV (MT4-IIIB)
  EC50: 46.3 µM

## CCCC(C(=O)O)c1c(C)nc(-c2ccccc2)nc1-c1ccc(Cl)cc1F (stereo not drawn) [cpd 94]
[1]
  CC50: 81 µM
[2]
  IC50: 7.25 µM
HIV (MT4-IIIB)
  EC50: 19 µM

## CCCC(C(=O)O)c1c(C)nc(-c2ccccc2)nc1-c1ccc(C)cc1F (stereo not drawn) [cpd 98]
[1]
  CC50: 113 µM
[2]
  IC50: 13.5 µM
HIV (MT4-IIIB)
  EC50: 35.9 µM

## CCCC(C(=O)O)c1c(C)nc(-c2ccccc2)nc1-c1ccc(Cl)cc1 (stereo not drawn) [cpd 102]
[1]
  CC50: 143 µM
[2]
  IC50: 13.4 µM
HIV (MT4-IIIB)
  EC50: 13.4 µM

## CCCC(C(=O)O)c1c(C)nc(-c2ccccc2)nc1-c1ccc(Cl)cc1O (stereo not drawn) [cpd 111]
[1]
  CC50: 97 µM
[2]
  IC50: 1.97 µM
HIV (MT4-IIIB)
  EC50: 26.4 µM

## CCCC(C(=O)O)c1c(C)nc(-c2ccccc2)nc1-c1ccc(C)cc1O (stereo not drawn) [cpd 119]
[1]
  CC50: 120 µM
[2]
  IC50: 21.9 µM
HIV (MT4-IIIB)
  EC50: 29.4 µM

## COCCC(C(=O)O)c1c(C)nc(N2CCCCC2)nc1-c1ccc(C)cc1 (stereo not drawn) [cpd 122]
[1]
  CC50: > 250 µM
[2]
  IC50: 59.7 µM
HIV (MT4-IIIB)
  EC50: 21.5 µM

## Cc1ccc(-c2nc(N3CCCCC3)nc(C)c2C(CCCC(F)(F)F)C(=O)O)cc1 (stereo not drawn) [cpd 124]
[1]
  CC50: 124 µM
[2]
  IC50: 19.7 µM
HIV (MT4-IIIB)
  EC50: 5.3 µM

## CCCC(C(=O)O)c1c(C)nc(N2CCCCC2)nc1-c1ccc(F)cc1F (stereo not drawn) [cpd 130]
[1]
  CC50: 99 µM
[2]
  IC50: 17.4 µM
HIV (MT4-IIIB)
  EC50: 22.7 µM

## CCCC(C(=O)O)c1c(C)nc(N2CCCCC2)nc1-c1ccc(C)cc1C (stereo not drawn) [cpd 132]
[1]
  CC50: 84.5 µM
[2]
  IC50: 22.9 µM
HIV (MT4-IIIB)
  EC50: 30.2 µM

## CCCC(C(=O)O)c1c(C)nc(N2CCCCC2)nc1-c1ccc(OC)cc1F (stereo not drawn) [cpd 136]
[1]
  CC50: 127 µM
[2]
  IC50: 20.7 µM
HIV (MT4-IIIB)
  EC50: 49 µM

## CCCC(C(=O)O)c1c(C)nc(N2CCCCC2)nc1-c1ccc(C)cc1Cl (stereo not drawn) [cpd 144]
[1]
  CC50: 72.5 µM
[2]
  IC50: 5.92 µM
HIV (MT4-IIIB)
  EC50: 7.93 µM

## CCCC(C(=O)O)c1c(C)nc(N2CCCCC2)nc1-c1ccc(Cl)cc1F (stereo not drawn) [cpd 146]
[1]
  CC50: 72 µM
[2]
  IC50: 10.8 µM
HIV (MT4-IIIB)
  EC50: 9.38 µM

## CCCC(C(=O)O)c1c(C)nc(N2CCCCC2)nc1N1CCCCC1 (stereo not drawn) [cpd 148]
[1]
  CC50: 138 µM
[2]
  IC50: 34.1 µM
HIV (MT4-IIIB)
  EC50: 18.1 µM

## Cc1ccc(-c2nc(N3CCCCC3)nc(C)c2C(CC(C)(C)C)C(=O)O)cc1 (stereo not drawn) [cpd 152]
[1]
  CC50: 72 µM
[2]
  IC50: 6.9 µM
HIV (MT4-IIIB)
  EC50: 3.48 µM
